Data published in patent US20230049952A1, “METHODS AND COMPOUNDS FOR RESTORING MUTANT P53 FUNCTION” (PMV Pharmaceuticals, Inc., priority 2020, published 2023).

Test system: NF-κB signaling pathway in MT373 tumors
Experiment: MT373 syngeneic sarcoma model: mouse NF-κB signaling pathway profiling panel
Assay type: in vivo

Compound: CCn1c(C#CCNc2ccccc2)cc2cc(CNC3CCN(C)CC3)ccc21 [Compound 1, 1-Anilino-3-{1-ethyl-5-[(1-methyl-4-piperidylamino)methyl]-1H-indol-2-yl}-2-propyne]
- Bcl2a1a fold increase over or percent reduction vs vehicle control (150 mg/kg BIDx1, 48 h): 67.64 ± 10.73 fold or %
- Bcl2l1 fold increase over or percent reduction vs vehicle control (150 mg/kg BIDx1, 48 h): 7.49 ± 1.18 fold or %
- Bcl3 fold increase over or percent reduction vs vehicle control (150 mg/kg BIDx1, 48 h): 1.35 ± 0.16 fold or %
- Bcl10 fold increase over or percent reduction vs vehicle control (150 mg/kg BIDx1, 48 h): 36.06 ± 3.54 fold or %
- Birc3 fold increase over or percent reduction vs vehicle control (150 mg/kg BIDx1, 48 h): 1.20 ± 0.28 fold or %
- Card10 fold increase over or percent reduction vs vehicle control (150 mg/kg BIDx1, 48 h): 1.20 ± 0.11 fold or %
- Card11 fold increase over or percent reduction vs vehicle control (150 mg/kg BIDx1, 48 h): 1.67 ± 0.42 fold or %
- Casp1 fold increase over or percent reduction vs vehicle control (150 mg/kg BIDx1, 48 h): 10.29 ± 10.66 fold or %
- Casp8 fold increase over or percent reduction vs vehicle control (150 mg/kg BIDx1, 48 h): 1.02 ± 0.01 fold or %
- Ccl2 fold increase over or percent reduction vs vehicle control (150 mg/kg BIDx1, 48 h): 67.28 ± 5.26 fold or %
- Ccl5 fold increase over or percent reduction vs vehicle control (150 mg/kg BIDx1, 48 h): 8.18 ± 19.38 fold or %
- Cd27 fold increase over or percent reduction vs vehicle control (150 mg/kg BIDx1, 48 h): 1.46 ± 0.26 fold or %
- Cd40 fold increase over or percent reduction vs vehicle control (150 mg/kg BIDx1, 48 h): 39.20 ± 14.39 fold or %
- Cflar fold increase over or percent reduction vs vehicle control (150 mg/kg BIDx1, 48 h): 7.92 ± 8.21 fold or %
- Chuk fold increase over or percent reduction vs vehicle control (150 mg/kg BIDx1, 48 h): 4.04 ± 12.31 fold or %
- Crebbp fold increase over or percent reduction vs vehicle control (150 mg/kg BIDx1, 48 h): 1.12 ± 0.05 fold or %
- Csf1 fold increase over or percent reduction vs vehicle control (150 mg/kg BIDx1, 48 h): 11.36 ± 7.30 fold or %
- Csf2 fold increase over or percent reduction vs vehicle control (150 mg/kg BIDx1, 48 h): 62.24 ± 8.70 fold or %
- Csf3 fold increase over or percent reduction vs vehicle control (150 mg/kg BIDx1, 48 h): 0.37 ± 11.46 fold or %
- Egfr fold increase over or percent reduction vs vehicle control (150 mg/kg BIDx1, 48 h): 24.42 ± 4.76 fold or %
- Egr1 fold increase over or percent reduction vs vehicle control (150 mg/kg BIDx1, 48 h): 42.64 ± 12.12 fold or %
- Eif2ak2 fold increase over or percent reduction vs vehicle control (150 mg/kg BIDx1, 48 h): 1.01 ± 0.03 fold or %
- Elk1 fold increase over or percent reduction vs vehicle control (150 mg/kg BIDx1, 48 h): 11.87 ± 8.21 fold or %
- F2r fold increase over or percent reduction vs vehicle control (150 mg/kg BIDx1, 48 h): 19.79 ± 4.23 fold or %
- Fadd fold increase over or percent reduction vs vehicle control (150 mg/kg BIDx1, 48 h): 7.23 ± 4.56 fold or %
- Fasl fold increase over or percent reduction vs vehicle control (150 mg/kg BIDx1, 48 h): 5.96 ± 19.38 fold or %
- Fos fold increase over or percent reduction vs vehicle control (150 mg/kg BIDx1, 48 h): 47.30 ± 7.08 fold or %
- Hmox1 fold increase over or percent reduction vs vehicle control (150 mg/kg BIDx1, 48 h): 27.03 ± 7.50 fold or %
- Icam1 fold increase over or percent reduction vs vehicle control (150 mg/kg BIDx1, 48 h): 3.83 ± 17.26 fold or %
- Ifng fold increase over or percent reduction vs vehicle control (150 mg/kg BIDx1, 48 h): 43.46 ± 15.02 fold or %
- Ikbkb fold increase over or percent reduction vs vehicle control (150 mg/kg BIDx1, 48 h): 1.24 ± 0.09 fold or %
- Ikbke fold increase over or percent reduction vs vehicle control (150 mg/kg BIDx1, 48 h): 1.71 ± 28.42 fold or %
- Ikbkg fold increase over or percent reduction vs vehicle control (150 mg/kg BIDx1, 48 h): 3.73 ± 5.88 fold or %
- Il1a fold increase over or percent reduction vs vehicle control (150 mg/kg BIDx1, 48 h): 28.88 ± 7.08 fold or %
- Il1b fold increase over or percent reduction vs vehicle control (150 mg/kg BIDx1, 48 h): 18.73 ± 5.15 fold or %
- Il1r1 fold increase over or percent reduction vs vehicle control (150 mg/kg BIDx1, 48 h): 22.37 ± 5.01 fold or %
- Il10 fold increase over or percent reduction vs vehicle control (150 mg/kg BIDx1, 48 h): 1.15 ± 0.09 fold or %
- Irak1 fold increase over or percent reduction vs vehicle control (150 mg/kg BIDx1, 48 h): 1.00 ± 2.36 fold or %
- Irak2 fold increase over or percent reduction vs vehicle control (150 mg/kg BIDx1, 48 h): 17.08 ± 1.54 fold or %
- Irf1 fold increase over or percent reduction vs vehicle control (150 mg/kg BIDx1, 48 h): 7.15 ± 7.58 fold or %
- Jun fold increase over or percent reduction vs vehicle control (150 mg/kg BIDx1, 48 h): 44.92 ± 3.26 fold or %
- Lta fold increase over or percent reduction vs vehicle control (150 mg/kg BIDx1, 48 h): 57.16 ± 12.86 fold or %
- Ltbr fold increase over or percent reduction vs vehicle control (150 mg/kg BIDx1, 48 h): 13.21 ± 2.85 fold or %
- Map3k1 fold increase over or percent reduction vs vehicle control (150 mg/kg BIDx1, 48 h): 1.74 ± 0.24 fold or %
- Mapk3 fold increase over or percent reduction vs vehicle control (150 mg/kg BIDx1, 48 h): 3.13 ± 7.94 fold or %
- Myd88 fold increase over or percent reduction vs vehicle control (150 mg/kg BIDx1, 48 h): 1.17 ± 0.06 fold or %
- Nfkb1 fold increase over or percent reduction vs vehicle control (150 mg/kg BIDx1, 48 h): 1.04 ± 0.04 fold or %
- Nfkb2 fold increase over or percent reduction vs vehicle control (150 mg/kg BIDx1, 48 h): 1.17 ± 0.11 fold or %
- Nfkbia fold increase over or percent reduction vs vehicle control (150 mg/kg BIDx1, 48 h): 1.14 ± 0.15 fold or %
- Nod1 fold increase over or percent reduction vs vehicle control (150 mg/kg BIDx1, 48 h): 1.49 ± 0.08 fold or %
- Raf1 fold increase over or percent reduction vs vehicle control (150 mg/kg BIDx1, 48 h): 0.48 ± 5.31 fold or %
- Rel fold increase over or percent reduction vs vehicle control (150 mg/kg BIDx1, 48 h): 1.30 ± 0.16 fold or %
- Rela fold increase over or percent reduction vs vehicle control (150 mg/kg BIDx1, 48 h): 1.07 ± 0.01 fold or %
- Relb fold increase over or percent reduction vs vehicle control (150 mg/kg BIDx1, 48 h): 1.09 ± 0.07 fold or %
- Ripk1 fold increase over or percent reduction vs vehicle control (150 mg/kg BIDx1, 48 h): 1.19 ± 0.07 fold or %
- Ripk2 fold increase over or percent reduction vs vehicle control (150 mg/kg BIDx1, 48 h): 24.29 ± 6.23 fold or %
- Slc20a1 fold increase over or percent reduction vs vehicle control (150 mg/kg BIDx1, 48 h): 40.28 ± 6.82 fold or %
- Smad3 fold increase over or percent reduction vs vehicle control (150 mg/kg BIDx1, 48 h): 1.04 ± 0.08 fold or %
- Stat1 fold increase over or percent reduction vs vehicle control (150 mg/kg BIDx1, 48 h): 1.36 ± 0.15 fold or %
- Tbk1 fold increase over or percent reduction vs vehicle control (150 mg/kg BIDx1, 48 h): 1.01 ± 6.05 fold or %
- Tlr1 fold increase over or percent reduction vs vehicle control (150 mg/kg BIDx1, 48 h): 1.63 ± 0.28 fold or %
- Tlr2 fold increase over or percent reduction vs vehicle control (150 mg/kg BIDx1, 48 h): 1.24 ± 0.15 fold or %
- Tlr3 fold increase over or percent reduction vs vehicle control (150 mg/kg BIDx1, 48 h): 1.00 ± 1.44 fold or %
- Tlr4 fold increase over or percent reduction vs vehicle control (150 mg/kg BIDx1, 48 h): 6.31 ± 9.66 fold or %
- Tlr6 fold increase over or percent reduction vs vehicle control (150 mg/kg BIDx1, 48 h): 1.33 ± 0.08 fold or %
- Tlr9 fold increase over or percent reduction vs vehicle control (150 mg/kg BIDx1, 48 h): 1.92 ± 0.29 fold or %
- Tnf fold increase over or percent reduction vs vehicle control (150 mg/kg BIDx1, 48 h): 56.86 ± 13.49 fold or %
- Tnfaip3 fold increase over or percent reduction vs vehicle control (150 mg/kg BIDx1, 48 h): 1.26 ± 0.33 fold or %
- Tnfrsf1a fold increase over or percent reduction vs vehicle control (150 mg/kg BIDx1, 48 h): 1.35 ± 0.08 fold or %
- Tnfrsf1b fold increase over or percent reduction vs vehicle control (150 mg/kg BIDx1, 48 h): 1.66 ± 0.08 fold or %
- Tnfrsf10b fold increase over or percent reduction vs vehicle control (150 mg/kg BIDx1, 48 h): 11.34 ± 5.36 fold or %
- Tnfsf10 fold increase over or percent reduction vs vehicle control (150 mg/kg BIDx1, 48 h): 16.58 ± 3.82 fold or %
- Tnfsf14 fold increase over or percent reduction vs vehicle control (150 mg/kg BIDx1, 48 h): 1.53 ± 0.40 fold or %
- Tollip fold increase over or percent reduction vs vehicle control (150 mg/kg BIDx1, 48 h): 2.45 ± 1.53 fold or %
- Tradd fold increase over or percent reduction vs vehicle control (150 mg/kg BIDx1, 48 h): 1.01 ± 0.06 fold or %
- Traf2 fold increase over or percent reduction vs vehicle control (150 mg/kg BIDx1, 48 h): 7.23 ± 7.66 fold or %
- Traf3 fold increase over or percent reduction vs vehicle control (150 mg/kg BIDx1, 48 h): 13.20 ± 10.35 fold or %
- Traf5 fold increase over or percent reduction vs vehicle control (150 mg/kg BIDx1, 48 h): 2.99 ± 3.31 fold or %
- Traf6 fold increase over or percent reduction vs vehicle control (150 mg/kg BIDx1, 48 h): 1.07 ± 0.12 fold or %
- Zap70 fold increase over or percent reduction vs vehicle control (150 mg/kg BIDx1, 48 h): 1.45 ± 0.41 fold or %
- Agt fold increase over or percent reduction vs vehicle control (150 mg/kg BIDx1, 72 h): 2.05 ± 0.66 fold or %
- Akt1 fold increase over or percent reduction vs vehicle control (150 mg/kg BIDx1, 72 h): 1.06 ± 0.07 fold or %
- Atf1 fold increase over or percent reduction vs vehicle control (150 mg/kg BIDx1, 72 h): 34.00 ± 7.86 fold or %
- Atf2 fold increase over or percent reduction vs vehicle control (150 mg/kg BIDx1, 72 h): 8.53 ± 13.61 fold or %
- Bcl2a1a fold increase over or percent reduction vs vehicle control (150 mg/kg BIDx1, 72 h): 48.45 ± 28.65 fold or %
- Bcl2l1 fold increase over or percent reduction vs vehicle control (150 mg/kg BIDx1, 72 h): 1.06 ± 0.18 fold or %
- Bcl3 fold increase over or percent reduction vs vehicle control (150 mg/kg BIDx1, 72 h): 1.22 ± 0.24 fold or %
- Bcl10 fold increase over or percent reduction vs vehicle control (150 mg/kg BIDx1, 72 h): 23.25 ± 7.71 fold or %
- Birc3 fold increase over or percent reduction vs vehicle control (150 mg/kg BIDx1, 72 h): 1.13 ± 0.28 fold or %
